Experimental data from US20080153849A1, “Process for the Preparation of Crystalline (6Rrs)-N(5)-Formyl-5,6,7,8-Tetrahydrofolic Acid” (priority 2004, published 2008).

Experiment: Storage stability of the solid in a refrigerator (HPLC assay and purity)
Type: physicochemical
Settings: for Assay (HPLC) / Purity (HPLC): solid stored at 2° C. to 8° C.
Description: This solid was stored at a temperature from 2° C. to 8° C. in a refrigerator. Thereby the following stability dates were obtained for this solid: […]

| Structure (SMILES) | Assay (HPLC) (time 0 months) [%] | Purity (HPLC) (time 0 months) [%] | Assay (HPLC) (time 3 months) [%] | Purity (HPLC) (time 3 months) [%] | Assay (HPLC) (time 6 months) [%] | Purity (HPLC) (time 6 months) [%] | Assay (HPLC) (time 9 months) [%] | Purity (HPLC) (time 9 months) [%] | Assay (HPLC) (time 12 months) [%] | Purity (HPLC) (time 12 months) [%.] | Stability of the solid compared with crystalline (6RS)-folinic acid (general statement in words) | Assay (HPLC) (time 1 month) [%] | Purity (HPLC) (time 1 month) [%] | Assay (HPLC) (time 2 months) [%] | Purity (HPLC) (time 2 months) [%] |
| --- | --- | --- | --- | --- | --- | --- | --- | --- | --- | --- | --- | --- | --- | --- | --- |
| Nc1nc2c(c(=O)[nH]1)N(C=O)C(CNc1ccc(C(=O)N[C@@H](CCC(=O)O)C(=O)O)cc1)CN2 (mixture of isomers) [Example 1, (6RS)-N(5)-formyl-5,6,7,8-tetrahydrofolic acid] | 99.4 | 99.78 | 99.0 | 99.79 | 99.1 | 99.75 | 100.2 | 99.82 | 99.9 | 99.79 | – | – | – | – | – |
| Nc1nc2c(c(=O)[nH]1)N(C=O)[C@@H](CNc1ccc(C(=O)N[C@@H](CCC(=O)O)C(=O)O)cc1)CN2 [Example 2, (6S)-N(5)-formyl-5,6,7,8-tetrahydrofolic acid] | 99.0 | 99.2 | 98.9 | 98.9 | 98.1 | 98.4 | – | – | 97.8 | 97.2 | stability comparable with the crystalline (6RS)-folinic acid | 98.5 | 99.0 | 98.1 | 98.9 |
